Here are results for seven compounds from ChEMBL document CHEMBL1129766, “SAR of 2-benzyl-4-aminopiperidines: CGP 49823, an orally and centrally active non-peptide NK1 antagonist” (Bioorg Med Chem Lett, 1996).

For assay [1], the system named is U373 MG. Put plainly: Compound was tested for inhibition of substance P induced phosphatidyl inositol turnover in human U-373 cells. In kind it is functional, cell-based, U-373MG ATCC.
In assay [2] the target is T1, Substance-K receptor (Bos taurus) (UniProt P05363).
T1 sequence (whole entry): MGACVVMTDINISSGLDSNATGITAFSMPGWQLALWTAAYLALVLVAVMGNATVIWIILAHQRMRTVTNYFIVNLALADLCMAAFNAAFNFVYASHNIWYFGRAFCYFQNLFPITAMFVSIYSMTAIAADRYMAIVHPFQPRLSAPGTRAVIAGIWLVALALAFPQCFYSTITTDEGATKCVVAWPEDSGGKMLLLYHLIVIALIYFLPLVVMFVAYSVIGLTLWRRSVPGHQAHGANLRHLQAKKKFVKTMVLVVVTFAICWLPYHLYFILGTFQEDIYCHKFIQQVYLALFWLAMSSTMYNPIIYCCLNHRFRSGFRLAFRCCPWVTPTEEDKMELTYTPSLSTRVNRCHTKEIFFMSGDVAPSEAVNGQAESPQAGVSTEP
Briefly: Compound was tested for inhibition of [125I]NKA radioligand binding to NK2 receptor from bovine bladder at 1 uM.

The subject of assay [3] is Gerbillinae. Put plainly: (§1) Tested for inhibition of thumping behavior in gerbils induced by iv administration of SP-methyl ester 2 hours after peroral administration of 30 mg/kg of the compound. The format is functional. The following applies: route oral.
For assay [4], the target named is T2, Neuromedin-K receptor (Homo sapiens) (UniProt P29371).
T2 sequence (whole entry): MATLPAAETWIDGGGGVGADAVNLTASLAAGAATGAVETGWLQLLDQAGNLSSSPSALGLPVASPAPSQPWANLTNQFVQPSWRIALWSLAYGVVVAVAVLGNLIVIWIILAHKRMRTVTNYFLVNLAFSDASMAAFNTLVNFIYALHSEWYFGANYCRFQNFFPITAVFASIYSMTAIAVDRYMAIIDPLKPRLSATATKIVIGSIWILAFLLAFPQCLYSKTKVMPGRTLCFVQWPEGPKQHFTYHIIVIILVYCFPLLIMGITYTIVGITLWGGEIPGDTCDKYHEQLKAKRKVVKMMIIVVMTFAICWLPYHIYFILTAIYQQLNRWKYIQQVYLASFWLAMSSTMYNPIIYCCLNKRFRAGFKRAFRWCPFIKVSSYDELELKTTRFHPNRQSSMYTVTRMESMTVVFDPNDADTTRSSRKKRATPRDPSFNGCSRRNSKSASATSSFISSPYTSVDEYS
The following applies: Gerbillinae.

Assay [5] deals with T3, Neuromedin-K receptor (Homo sapiens, UniProt P29371).
T3 sequence (P29371 whole entry): T2 sequence (whole entry)
Put plainly: Compound was tested for inhibition of [125I]eledoisin radioligand binding to NK3 receptor from gerbil cortex; NA means no activity. Further details: species or system Gerbillinae.

For assay [6], the system named is Gerbillinae. Described as §1. The format is functional, organism-based. On the set-up: dose 30 mg/kg, route oral.
Assay [7] has as its target T1, Substance-K receptor (Bos taurus). Put plainly: (§2) Compound was tested for inhibition of [125I]NKA radioligand binding to NK2 receptor from bovine bladder. Particulars: concentration not given here.
Assay [8] concerns Gerbillinae. Briefly: Tested for inhibition of thumping behavior in gerbils induced by iv administration of SP-methyl ester 2 hours after intraperitoneal administration of 60 mg/kg of the compound. In kind it is functional.
Assay [9] deals with Gerbillinae. Put plainly: Compound was tested for inhibition of thumping behavior in gerbils induced by iv administration of SP-methyl ester 2 hours after peroral administration of 30 mg/kg of the compound. In kind it is functional. The following applies: route oral.
For assay [10], the target named is T4, Substance-K receptor (Bos taurus, UniProt P05363).
T4 sequence (P05363 whole entry): T1 sequence (whole entry)
Described as §2.

pIC50: −log10 of the molar value. Active and inactive are the calls of the source. The rule behind the calls is not given here.

As usually defined, the pIC50 is the IC50 on a negative log10 scale, so that one unit is a factor of ten. Read a low pIC50 as a large IC50. Broadly, the inhibition is the share of the control response that was lost under treatment. A low value points to little suppression. As a reminder, the inhibition in vivo is the drop in the measured response relative to a control, in per cent. Low readings indicate little suppression, high ones strong suppression. `Cc1cc(C)cc(C(=O)N2CC[C@@H](NCc3ccnc4ccccc34)C[C@@H]2Cc2ccccc2)c1` showed a pIC50 in [1] of 6.82. This compound also gave an inhibition in assay [2] of 5%. The same compound had an inhibition in vivo at 30 mg/kg in assay [3] of 54%. In addition, the NA entry in assay [4] is “inactive”.

Compound `COc1ccccc1CN[C@H]1C2CCN(CC2)[C@H]1C(c1ccccc1)c1ccccc1` [CP-96345] had a pIC50 in [1] of 8.05. Besides, in assay [5], the IC50 result is given as “Not Active”. The same compound registered an inhibition in assay [2] of 24%. In [3], this compound returned an inhibition in vivo at 30 mg/kg of 61%.

`Cc1cc(C)cc(C(=O)N2CC[C@H](NCc3cnc4ccccc4c3)C[C@H]2Cc2ccccc2)c1` had a pIC50 in assay [1] of 6.68. For the same compound, the inhibition in [6] was 21%; in assay [7] it was 22%.

As for `Cc1cc(C)cc(C(=O)N2CC[C@@H](NCc3ccnc4ccccc34)C[C@H]2Cc2ccccc2)c1`, the inhibition in vivo at 60 mg/kg in assay [8] was determined as 20%.

With `O=C(N[C@H]1CCN(C(=O)c2cc(C(F)(F)F)cc(C(F)(F)F)c2)[C@H](Cc2ccccc2)C1)c1cc(O)nc2ccccc12`, the inhibition in vivo at 30 mg/kg in [9] came out at 24%. In assay [7], this compound showed an inhibition of 28%.

Consider `Cc1cc(C)cc(C(=O)N2CC[C@H](NCc3ccnc4ccccc34)C[C@H]2Cc2ccccc2)c1`, for which the pIC50 in [1] is 7.92; in assay [10] it was 5.55. The compound further returned an inhibition in vivo at 30 mg/kg in assay [3] of 34%.

`O=C(N[C@H]1CCN(C(=O)c2cc(Cl)cc(Cl)c2)[C@H](Cc2ccccc2)C1)c1ccnc2ccccc12`: the figures for the pIC50 in assay [1] and in assay [10] were 7.62 and 5.35, respectively. In assay [9], the inhibition in vivo at 30 mg/kg was found to be 66%.
